Source: patent US20070087029A1, “Localized delivery to the lymphatic system” (priority 2005, published 2007)

Columns and labels:
[1] = Chronic delivery: continuous infusion of dye(s) by Alzet miniosmotic pump for fourteen days, drainage to lymph nodes (photographs, OPD substrate development, histology); format: in vivo, rat; details: 14 days, open ended catheter, tip became occluded
Source text: (§1) Animals. Male Lewis Inbred rats, six to eight weeks of age, were obtained from Charles River Laboratories and were acclimatized for five days before use. Animals were anesthetized with sodium pentobarbital before implants and dye injections.
(§2) Dyes. Isosulfan blue, india ink, and goat anti rabbit horse radish peroxidase (HRP) were used.
Chronic delivery. Alzet® miniosmotic pumps with a delivery rate of 0.25 or 0.5 microliter/hour (μl/hr) were used to continuously infuse dye(s) for fourteen days. The animals were sacrificed and a gross visual examination of the internal organs was performed to identify dye drainage into internal organs. Lymph nodes were collected, photographed, and analyzed as described in Table 1, below.

[2] = Acute delivery: injection of tracking dye subcutaneously and above the IP wall, dye diffusion and gross visual examination of internal organs; format: in vivo, rat
Protocol: as §1, §2
Acute delivery. 40 microliters (μl) of isosulfan blue was injected subcutaneously and above the IP wall. The location of the injection was varied to detect the site which would drain into the para-aortic lymph nodes. Dye diffusion was monitored at five minutes and thirty minutes. The animals were then sacrificed and a gross visual examination of the internal organs was performed to identify dye drainage into internal organs.

dye in lymph nodes after chronic delivery [1]: not observed
dye diffusion after subcutaneous injection ([2]; 40 μl, subcutaneous injection, 30 minutes): Minimal diffusion
staining of internal organs after subcutaneous injection ([2]; injection site 1 cm above the hip joint, covered inguinal and popliteal beds): no internal organs being stained
dye diffusion after injection into the peritoneal wall ([2]; peritoneal wall, one centimeter above the hip joint): minimal diffusion
staining of internal organs after peritoneal wall injection ([2]; peritoneal wall, one centimeter above the hip joint, covered inguinal and popliteal beds): no internal organs being stained
SMILES: CCN(CC)c1ccc(C(=C2C=CC(=[N+](CC)CC)C=C2)c2cc(S(=O)(=O)[O-])ccc2S(=O)(=O)[O-])cc1.[Na+] [isosulfan blue, Isosulfan blue]
